SMILES strings stand for the structures.

The target of the experiment is T1, human CH24H (Homo sapiens, UniProt Q9Y6A2).
T1 construct: Using Full-Length Mammalian Gene Collection No. 4819975 (Invitrogen) as a template; made in house; host or cells: FreeStyle 293-F cells, transient transfection with pcDNA3.1(+)/hCH24H; lysate supernatant, not purified
Nature of the experiment: Measurement of CH24H inhibitory activity (24-HC produced from [14C] cholesterol by human CH24H lysate). Format: biochemical. The settings on record: 1 μM test compound, [14C] cholesterol 15 μM, 37° C. for 5 hr, read-out: Inhibitory Rate in 1 μM (%). The procedure: The expression of human CH24H was performed using FreeStyle 293 Expression System (Invitrogen). […] After transfection, the cells were cultured at 37° C., 8% CO2 with shaking at 125 rpm for 2 days. The cells were collected by centrifugation, and suspended in a suspension buffer (100 mM potassium phosphate (pH 7.4), 0.1 mM EDTA, 1 mM DTT, 20% Glycerol). The suspended product was disrupted by a polytron homogenizer (manufactured by Kinematica), and centrifuged at 9000×g for 10 min, and the supernatant was collected. The collected supernatant was cryopreserved (−80° C.) as a human CH24H lysate standard product.
For the measurement of CH24H inhibitory activity, using the human CH24H lysate prepared in Experimental Example 2, the amount of 24-HC produced from cholesterol by catalytic activity of CH24H was measured in the presence of a test compound, and compared with that measured in the absence of the test compound. That is, a test compound solution at various concentrations was mixed with a reaction buffer (50 mM potassium phosphate containing 0.1% BSA and Complete, EDTA-free, pH 7.4) and human CH24H lysate. Then, [^14C] cholesterol (53 mCi/mmol specific activity, 15 μM) was added, and CH24H reaction was performed at 37° C. for 5 hr. After completion of the reaction, a quenching solution consisting of chloroform/methanol/distilled water (2:2:1 v/v) was added, and the resulting 24-HC was extracted by shaking. The extract was applied to silica gel thin layer chromatography (ethyl acetate:toluene=4:6), and the obtained ^14C-24HC fraction was measured with BAS2500 (Fujifilm Corporation).
The inhibitory rate (%) was calculated from the ratio of radioactivity in the presence of a test compound relative to the radioactivity in the absence of the test compound.

T1 sequence (Q9Y6A2 whole entry): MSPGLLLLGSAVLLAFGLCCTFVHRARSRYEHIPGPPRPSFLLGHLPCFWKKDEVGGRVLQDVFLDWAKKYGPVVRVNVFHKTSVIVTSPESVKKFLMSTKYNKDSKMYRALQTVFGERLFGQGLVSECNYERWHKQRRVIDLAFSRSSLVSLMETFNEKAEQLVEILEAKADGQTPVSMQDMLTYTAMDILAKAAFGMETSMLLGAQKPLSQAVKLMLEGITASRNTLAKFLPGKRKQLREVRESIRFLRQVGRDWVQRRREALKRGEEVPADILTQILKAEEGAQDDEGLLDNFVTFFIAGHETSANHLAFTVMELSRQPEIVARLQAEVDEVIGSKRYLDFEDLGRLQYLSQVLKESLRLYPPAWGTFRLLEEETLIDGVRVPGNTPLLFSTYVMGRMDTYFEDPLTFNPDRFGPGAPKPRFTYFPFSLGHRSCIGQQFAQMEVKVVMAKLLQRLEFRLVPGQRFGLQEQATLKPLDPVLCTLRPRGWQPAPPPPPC

On to `Cc1cnn(-c2ccncc2N2CCC(C(=O)N3CC[C@@H](F)C3)CC2)c1` [Example 283, ((3R)-3-fluoropyrrolidin-1-yl)(1-(4-(4-methyl-1H-pyrazol-1-yl)pyridin-3-yl)piperidin-4-yl)methanone], for which the inhibition at 1 µM was 85%. Next, `CO[C@H]1CCN(C(=O)C2CCN(c3cnccc3-n3cc(C)cn3)CC2)C1` [Example 301, ((3S)-3-methoxypyrrolidin-1-yl)(1-(4-(4-methyl-1H-pyrazol-1-yl)pyridin-3-yl)piperidin-4-yl)methanone]: 86%; `CN(C(=O)C1CCN(c2cncnc2-c2ccc(F)cc2)CC1)C1CCOCC1` [Example 288, 1-(4-(4-fluorophenyl)pyrimidin-5-yl)-N-methyl-N-(tetrahydro-2H-pyran-4-yl)piperidine-4-carboxamide]: 84%. Next, `O=C(NCc1ccccn1)N1CCN(c2cncnc2-c2ccccc2)CC1` [Example 188, 4-(4-phenylpyrimidin-5-yl)-N-(pyridin-2-ylmethyl)piperazine-1-carboxamide]: 81%. On to `O=C(N1CCN(c2cncnc2-c2ccccc2)CC1)N(CCF)Cc1ccccc1` [Example 314, N-benzyl-N-(2-fluoroethyl)-4-(4-phenylpyrimidin-5-yl)piperazine-1-carboxamide], for which the inhibition at 1 µM worked out at 91%. Then `CO[C@H]1C[C@H](C#N)N(C(=O)C2CCN(c3cnccc3-n3cc(C)cn3)CC2)C1` [Example 144, (2R,4S)-4-methoxy-1-((1-(4-(4-methyl-1H-pyrazol-1-yl)pyridin-3-yl)piperidin-4-yl)carbonyl)pyrrolidine-2-carbonitrile], with 98%; and `O=C(C1CCN(c2cnccc2-n2cc(C3CC3)cn2)CC1)N1CC[C@H](F)C1` [Example 322, (1-(4-(4-cyclopropyl-1H-pyrazol-1-yl)pyridin-3-yl)piperidin-4-yl)((3S)-3-fluoropyrrolidin-1-yl)methanone], with 93%.

With `CC1CCCN1C(=O)C1CCN(c2cnccc2-n2cc(Cl)cn2)CC1` (centres unmarked) [Example 25, (1-(4-(4-chloro-1H-pyrazol-1-yl)pyridin-3-yl)piperidin-4-yl)(2-methylpyrrolidin-1-yl)methanone], the inhibition at 1 µM was determined as 97%.

In the case of `CN(C(=O)C1CCN(c2cncnc2-c2ccc(F)cc2)CC1)[C@@H]1CCOC1` [Example 310, 1-(4-(4-fluorophenyl)pyrimidin-5-yl)-N-methyl-N-((3R)-tetrahydrofuran-3-yl)piperidine-4-carboxamide], the inhibition at 1 µM came to 82%. Consider `CN(C(=O)C1CCN(c2cncnc2-c2ccc(F)cc2)CC1)[C@H]1CCOC1` [Example 309, 1-(4-(4-fluorophenyl)pyrimidin-5-yl)-N-methyl-N-((3S)-tetrahydrofuran-3-yl)piperidine-4-carboxamide], for which the inhibition at 1 µM stood at 85%. `Cc1cnn(-c2ccncc2N2CCC(C(=O)N(C)[C@H]3CCOC3)CC2)c1` [Example 305, N-methyl-1-(4-(4-methyl-1H-pyrazol-1-yl)pyridin-3-yl)-N-((3S)-tetrahydrofuran-3-yl)piperidine-4-carboxamide]: the inhibition at 1 µM amounted to 85%. Next, `CNC(=O)C1CCN(c2cnccc2-n2cc(C(F)(F)F)cn2)CC1` [Example 12, N-methyl-1-(4-(4-(trifluoromethyl)-1H-pyrazol-1-yl)pyridin-3-yl)piperidine-4-carboxamide]: 90%; `O=C(OCc1ccccc1)N1CCN(c2cncnc2-c2ccccc2)CC1` [Example 169, benzyl 4-(4-phenylpyrimidin-5-yl)piperazine-1-carboxylate]: 97%; `O=C(C1CCN(c2cncnc2-c2ccc(F)cc2)CC1)N1CC[C@H](F)C1` [Example 286, (1-(4-(4-fluorophenyl)pyrimidin-5-yl)piperidin-4-yl) ((3S)-3-fluoropyrrolidin-1-yl)methanone]: 83%. Next, `O=C(C1CCN(c2cnccc2-c2ccccn2)CC1)N1CCC(F)(F)C1` [Example 214, (1-(2,4′-bipyridin-3′-yl)piperidin-4-yl) (3,3-difluoropyrrolidin-1-yl)methanone]: 89%; `O=C(NC1CC1)C1CCN(c2cncnc2-c2ccc(F)cc2)CC1` [Example 193, N-cyclopropyl-1-(4-(4-fluorophenyl)pyrimidin-5-yl)piperidine-4-carboxamide]: 90%. Then `Cc1cnc(-c2ccncc2N2CCC(C(=O)N3CC(F)C3)CC2)s1` [Example 317, (3-fluoroazetidin-1-yl) (1-(4-(5-methyl-1,3-thiazol-2-yl)pyridin-3-yl)piperidin-4-yl)methanone], with 95%; and `O=C(C1CCN(c2cnccc2-n2cc(C3CC3)cn2)CC1)N1CC(F)C1` [Example 323, (1-(4-(4-cyclopropyl-1H-pyrazol-1-yl)pyridin-3-yl)piperidin-4-yl)(3-fluoroazetidin-1-yl)methanone], with 93%. Turning to `Cc1cnn(-c2ccncc2N2CCC(C(=O)N3CC[C@H](F)C3)CC2)c1` [Example 282, ((3S)-3-fluoropyrrolidin-1-yl)(1-(4-(4-methyl-1H-pyrazol-1-yl)pyridin-3-yl)piperidin-4-yl)methanone], the inhibition at 1 µM turned out to be 83%. Then `Cc1cnn(-c2ccncc2N2CCC(C(=O)N(C)C3CCOCC3)CC2)c1` [Example 296, N-methyl-1-(4-(4-methyl-1H-pyrazol-1-yl)pyridin-3-yl)-N-(tetrahydro-2H-pyran-4-yl)piperidine-4-carboxamide], with 86%. Take `Cc1cnc(-c2ccncc2N2CCC(C(=O)N(C)C)CC2)o1` [Example 2, N,N-dimethyl-1-(4-(5-methyl-1,3-oxazol-2-yl)pyridin-3-yl)piperidine-4-carboxamide]: the inhibition at 1 µM is 80%.

Consider `Cc1cnn(-c2ccncc2N2CCC3(CCN(C)C3=O)CC2)c1` [Example 82, 2-methyl-8-(4-(4-methyl-1H-pyrazol-1-yl)pyridin-3-yl)-2,8-diazaspiro[4.5]decan-1-one], for which the inhibition at 1 µM came to 97%. Next, `O=C(C1CCN(c2cnccc2-n2cc(Cl)cn2)CC1)N1CC[C@H](F)C1` [Example 284, (1-(4-(4-chloro-1H-pyrazol-1-yl)pyridin-3-yl)piperidin-4-yl)((3S)-3-fluoropyrrolidin-1-yl)methanone]: 80%. Then `Cc1cnn(-c2ccncc2N2CCN(C(=O)N(C)Cc3ccc(F)cc3)CC2)c1` [Example 297, N-(4-fluorobenzyl)-N-methyl-4-(4-(4-methyl-1H-pyrazol-1-yl)pyridin-3-yl)piperazine-1-carboxamide], with 84%; and `O=C(C1CCN(c2cnccc2-c2ccccn2)CC1)N1CC(F)(F)C1` [Example 213, (1-(2,4′-bipyridin-3′-yl)piperidin-4-yl) (3,3-difluoroazetidin-1-yl)methanone], with 93%. Then `Cc1nnc(-c2ccncc2N2CCC(C(=O)N3CCC[C@]3(C)C#N)CC2)s1` [Example 128, (2R)-2-methyl-1-((1-(4-(5-methyl-1,3,4-thiadiazol-2-yl)pyridin-3-yl)piperidin-4-yl)carbonyl)pyrrolidine-2-carbonitrile], with 97%.

Regarding `Cc1cnn(-c2ccncc2N2CCC(C(=O)Nc3ccccc3)CC2)c1` [Example 73, 1-(4-(4-methyl-1H-pyrazol-1-yl)pyridin-3-yl)-N-phenylpiperidine-4-carboxamide], the inhibition at 1 µM came out at 97%. Next, `CN(C(=O)C1CCN(c2cnccc2-n2cc(Cl)cn2)CC1)C1CCOCC1` [Example 54, 1-(4-(4-chloro-1H-pyrazol-1-yl)pyridin-3-yl)-N-methyl-N-(tetrahydro-2H-pyran-4-yl)piperidine-4-carboxamide]: 99%. Next, `CCNC(=O)N1CCN(c2cncnc2-c2ccccc2)CC1` [Example 176, N-ethyl-4-(4-phenylpyrimidin-5-yl)piperazine-1-carboxamide]: 82%. Take `O=C(C1CC1)N1CCN(c2cncc(F)c2-c2ccccc2)CC1` [Example 165, cyclopropyl(4-(5-fluoro-4-phenylpyridin-3-yl)piperazin-1-yl)methanone]: the inhibition at 1 µM came out at 86%. As to `Cc1cnn(-c2ccncc2N2CCC(C(=O)N3CC(F)C3)CC2)c1` [Example 280, (3-fluoroazetidin-1-yl)(1-(4-(4-methyl-1H-pyrazol-1-yl)pyridin-3-yl)piperidin-4-yl)methanone], the inhibition at 1 µM came out at 78%. `NC(=O)[C@@H]1CC(F)(F)CN1C(=O)C1CCN(c2cnccc2-n2cc(Cl)cn2)CC1` [Example 117, 1-((1-(4-(4-chloro-1H-pyrazol-1-yl)pyridin-3-yl)piperidin-4-yl)carbonyl)-4,4-difluoro-L-prolinamide]: the inhibition at 1 µM was found to be 85%.

Values taken from patent publication US9643957B2, “Heterocyclic compounds having cholesterol 24-hydroxylase activity” (TAKEDA PHARMACEUTICAL COMPANY LIMITED, priority 2012, dated 2017).
